Data as given in the supplement of paper PMC10307832.

Tests used:
Experiment in all cases: relative viability (nuclei count vs DMSO), 5 days (fraction); higher = more cells survive
Vismodegib + OSI-027 = compound: CS(=O)(=O)c1ccc(C(=O)Nc2ccc(Cl)c(-c3ccccn3)c2)c(Cl)c1 [Vismodegib] + COc1cccc2cc(-c3nc([C@H]4CC[C@H](C(=O)O)CC4)n4ncnc(N)c34)[nH]c12 [OSI-027] (partner 0.5 µM)
Summary of the method: (§1)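 Relative viability divides the nuclei count in treated wells by that in vehicle wells. Lung cancer cell lines were seeded in 1536-well plates, dosed by pin tool the next day, and fixed and stained after 5 days in one step with final 0.05% Triton X-100, 1% formaldehyde and 1 ug/ml Hoechst. Dosing was a single drug or a fixed anchor-drug dose plus five library-drug doses (not always all listed) in √10 steps, and values are medians of duplicate plates imaged at 4×.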

Vismodegib + Lapatinib = compound: CS(=O)(=O)c1ccc(C(=O)Nc2ccc(Cl)c(-c3ccccn3)c2)c(Cl)c1 [Vismodegib] + CS(=O)(=O)CCNCc1ccc(-c2ccc3ncnc(Nc4ccc(OCc5cccc(F)c5)c(Cl)c4)c3c2)o1 [Lapatinib] (partner 2 µM)
Summary of the method: as §1

Vismodegib + Pemetrexed = compound: CS(=O)(=O)c1ccc(C(=O)Nc2ccc(Cl)c(-c3ccccn3)c2)c(Cl)c1 [Vismodegib] + Nc1nc2[nH]cc(CCc3ccc(C(=O)N[C@@H](CCC(=O)O)C(=O)O)cc3)c2c(=O)[nH]1 [Pemetrexed] (partner 0.2 µM)
Summary of the method: as §1

Ruxolitinib + Crizotinib = compound: N#CC[C@H](C1CCCC1)n1cc(-c2ncnc3[nH]ccc23)cn1 [Ruxolitinib] + C[C@@H](Oc1cc(-c2cnn(C3CCNCC3)c2)cnc1N)c1c(Cl)ccc(F)c1Cl [Crizotinib] (partner 1 µM)
Summary of the method: as §1

UMC-11
relative viability (Vismodegib + OSI-027; first compound 0.08 µM): 0.499 | relative viability (Vismodegib + OSI-027; first compound 0.253 µM): 0.468 | relative viability (Vismodegib + OSI-027; first compound 0.8 µM): 0.408 | relative viability (Vismodegib + OSI-027; first compound 2.53 µM): 0.43 | relative viability (Vismodegib + OSI-027; first compound 8 µM): 0.46 | relative viability (Vismodegib + Lapatinib; first compound 0.08 µM): 0.915 | relative viability (Vismodegib + Lapatinib; first compound 0.253 µM): 0.971 | relative viability (Vismodegib + Lapatinib; first compound 0.8 µM): 0.893 | relative viability (Vismodegib + Lapatinib; first compound 2.53 µM): 0.974 | relative viability (Vismodegib + Lapatinib; first compound 8 µM): 0.598 | relative viability (Vismodegib + Pemetrexed; first compound 0.08 µM): 0.61 | relative viability (Vismodegib + Pemetrexed; first compound 0.253 µM): 0.807 | relative viability (Vismodegib + Pemetrexed; first compound 0.8 µM): 0.768 | relative viability (Vismodegib + Pemetrexed; first compound 2.53 µM): 0.739 | relative viability (Vismodegib + Pemetrexed; first compound 8 µM): 0.868 | relative viability (Ruxolitinib + Crizotinib; first compound 0.08 µM): 0.622 | relative viability (Ruxolitinib + Crizotinib; first compound 0.253 µM): 0.616 | relative viability (Ruxolitinib + Crizotinib; first compound 0.8 µM): 0.736 | relative viability (Ruxolitinib + Crizotinib; first compound 2.53 µM): 0.736 | relative viability (Ruxolitinib + Crizotinib; first compound 8 µM): 0.668
